# Test results taken from US8906111B2, “Artificial bone material having controlled calcium ion elution” (The University of Tokyo, priority 2008, dated 2014).
# What was measured:
# [1] = Chelating effect on calcium ion measured with a calcium ion electrode; type: physicochemical; conditions: 0.25% to 25% gluconic acid containing 2.5 mM CaCl2, pH 7.0; FIG. 2
# Protocol: To confirm chelating effects of gluconic acid on calcium ion, the concentration of calcium ion in the presence of gluconic acid was measured with a calcium ion electrode. The vertical axis of FIG. 2 indicates the concentration of calcium ion (Ca^2+) (mg/L). […] The results might be attributed to the gluconic acid chelating calcium ions.
# [2] = system: Macrophage-like cells RAW267.4; experiment: Release of [3H] arachidonic acid (lipid mediator) from macrophage-like cells treated with CaCl2-gluconic acid solutions; type: cell-based; conditions: FIG. 3
# Protocol: An increased concentration of extracellular calcium ions activates an inflammatory response route through increase of intracellular calcium ion and/or a sensing mechanism of extracellular calcium ion. The present inventors studied whether induction of inflammatory responses due to increase of calcium ions can be prevented or not by chelating calcium ions. Solutions of 5 mM CaCl2—0.384% gluconic acid and 7.5 mM CaCl2—0.384% gluconic acid (referred to as Ca^2+Gluc.Acid), the pH of which were adjusted to approximately 7 with NaOH, were prepared and allowed to stand for one hour at room temperature. Macrophage-like cells RAW267.4, which were labeled with 1 μCi [^3H] arachidonic acid one day before, were treated with respective CaCl2-gluconic acid solutions for one hour, and measured for the amount of released lipid mediator with a liquid scintillation counter.
# FIG. 3 is a graph, in place of a drawing, showing that gluconic acid prevents inflammatory responses induced by calcium ions. Each vertical axis of FIGS. 3A and 3B indicates release of arachidonic acid (rates of released [^3H] arachidonic acid). The higher value refers to more arachidonic acid being released, indicating an activation of arachidonate cascade, which is one of the major inflammatory responses. In FIG. 3, the “mock” refers to a sample without CaCl2 or gluconic acid addition, which was prepared as a control. […]
Structure (SMILES),concentration of calcium ion (Ca2+) [1],"release of arachidonic acid (rates of released [3H] arachidonic acid) ([2]; 5 mM or 7.5 mM CaCl2 with 0.384% gluconic acid, pH approx. 7, cells treated one hour)","release of arachidonic acid (amount of released lipid mediator) ([2]; CaCl2 (5 mM or 7.5 mM) without gluconic acid, compared with the mock)"
O=C(O)[C@H](O)[C@@H](O)[C@H](O)[C@H](O)CO [gluconic acid],"the higher the concentration of gluconic acid became, the concentration of calcium ion lowered",arachidonate cascade activation was prevented,
[Ca+2].[Cl-].[Cl-] [CaCl2],,,released increased amount of lipid mediator
